Converted amounts (≈) assume the structure as drawn.
Key:
C. albicans 10231 = assay: MBC/MFC against C. albicans 10231; type: cell-based; settings: Candida albicans
L929 cells = assay: CT50 cytotoxicity in L929 cells; settings: pH 7 phosphate
E. coli 25922 = assay: MBC/MFC against E. coli 25922; type: cell-based; settings: Escherichia coli
S. aureus 29213 = assay: MBC/MFC against S. aureus 29213; type: cell-based; settings: Staphylococcus aureus

Structure (SMILES)	MFC (C. albicans 10231; pH 4 acetate, Table 4)	MFC (C. albicans 10231; pH 7 phosphate, Table 4)	CT50 L929 cells (L929 cells; Table 4)	MBC (E. coli 25922; pH 4 acetate, Table 4)	MBC (E. coli 25922; pH 7 phosphate, Table 4)	MBC (S. aureus 29213; pH 4 acetate, Table 4)	MBC (S. aureus 29213; pH 7 phosphate, Table 4)	MFC (C. albicans 10231; pH 4 acetate, Table 3)	MFC (C. albicans 10231; pH 7 phosphate, Table 3)	CT50 L929 cells (L929 cells; Table 3)	MBC (E. coli 25922; pH 4 acetate, Table 3)	MBC (E. coli 25922; pH 7 phosphate, Table 3)	MBC (S. aureus 29213; pH 4 acetate, Table 3)	MBC (S. aureus 29213; pH 7 phosphate, Table 3)
COCCOCCOCCOCCOCCOCCOCCOCCOCCOCCOCCOCCOCCOCCOCCOCCOCCOCCOCCOCCOCCOCCOCCOCCOCCOCCOCCOCCOCCOCCOCCOCCOCCOCCOCCOCCOCCOCCOCCN1C(=O)C(C)(C)N(Cl)C1(C)C [Compound 39-118, 1-chloro-2,2,5,5-tetramethyl-3-(2,5,8,11,14,17,20,23,26,29,32,35,38,41,44, 47,50,53,56,59,62,65,68,71,74,77,80,83,86,89, 92,95,98,101,104,107,110,113,116-nonatriacontaoxaoctadecahectan-118-yl)imidazolidin-4-one]	256 µg/mL (≈ 134 µM)	> 2050 µg/mL	11.3 mM	32 µg/mL (≈ 16.8 µM)	2050 µg/mL (≈ 1070 µM)	8 µg/mL (≈ 4.19 µM)	4100 µg/mL (≈ 2150 µM)	–	–	–	–	–	–	–
CC(C)(CC[N+](C)(C)CCCO)N(Cl)Cl [Compound 38-151, 3-(dichloroamino)-N-(3-hydroxypropyl)-N,N,3-trimethylbutan-1-aminium]	–	–	–	–	–	–	–	64 µg/mL	> 1020 µg/mL	0.12 mM	4 µg/mL	1020 µg/mL	4 µg/mL	> 2050 µg/mL
COCCOCCOCC[N+](C)(C)CCN1CC(C)(C)N(Cl)C1=O [Compound 39-110, 2-(3-chloro-4,4-dimethyl-2-oxoimidazolidin-1-yl)-N-(2-(2-(2-methoxyethoxy)ethoxy)ethyl)-N,N-dimethylethanaminium 4-methylbenzenesulfonate]	256 µg/mL	> 2050 µg/mL	3.9 mM	128 µg/mL	1020 µg/mL	128 µg/mL	2050 µg/mL	–	–	–	–	–	–	–
COCCC[N+](C)(C)CCC(C)(C)N(Cl)Cl [Compound 38-137, 3-(dichloroamino)-N-(3-methoxypropyl)-N,N,3-trimethylbutan-1-aminium chloride]	–	–	–	–	–	–	–	32 µg/mL	> 1020 µg/mL	1.62 mM	8 µg/mL	512 µg/mL	4 µg/mL	> 1020 µg/mL
COCCOCCOCC[N+](C)(C)CCC(C)(C)N(Cl)Cl [Compound 38-45, 3-(dichloroamino)-N-(2-(2-(2-methoxyethoxy)ethoxy)ethyl)-N,N,3-trimethylbutan-1-aminium 4-methylbenzenesulfonate]	–	–	–	–	–	–	–	64 µg/mL	> 2050 µg/mL	3.2 mM	4 µg/mL	1020 µg/mL	4 µg/mL	1020 µg/mL

Reference: patent publication US9248117B2, “Substituted N,N-dihaloamines as antimicrobials” (priority 2010, dated 2016)
